Measurements reported in ChEMBL document CHEMBL5604062, “ASAP - ZIKV NS2B-NS3 protease fluorescence dose response” (2024).
“And” between values parts separate entries of the source, which are not always exact repeats. Equal entries are not always repeated.

What follows are compounds tested against Nonstructural protein 3 (Zika virus, UniProt A0A024AXB9) (assay: Functional biochemical assay to identify treatments for viral infectious disease that targets Zika NS2B-NS3 protease. Utilizing a direct enzyme activity measurement method, reading the fluorescence intensity is used to characterize the relative potency of inhibitors as IC50.).
Chain of Nonstructural protein 3 (A0A024AXB9 whole entry): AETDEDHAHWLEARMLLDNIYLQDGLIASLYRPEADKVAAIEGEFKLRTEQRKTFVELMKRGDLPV
Set-up: species or system PRVABC59

| SMILES | IC50 |
| --- | --- |
| NCc1cccc(NC(=O)[C@@H](NC(=O)OCc2ccccc2)c2ccc(OC[C@H]3CCS(=O)(=O)C3)cc2)c1 | > 99.5 µM |
| CNC(=O)c1cc(Cl)ccc1NS(=O)(=O)c1cccc(Oc2ccccc2)c1 | > 99.5 µM |
| N=C(N)NCCc1ccccc1B(O)O | > 100 µM |
| N[C@H]1CC[C@H](NC(=O)[C@@H](NC(=O)OCc2ccccc2)c2ccc(OCc3ccccc3)cc2)CC1 | > 99.5 µM |
| CC(C)[C@@H]1[C@H](C(=O)Nc2cccc(CN)c2)CCN1C(=O)OCc1ccccc1 | > 99.5 µM |
| NCc1cccc(NC(=O)[C@H](NC(=O)OCc2ccccc2)c2cccc(OCc3ccncc3)c2)c1 | > 99.5 µM |
| Cc1c(C(=O)Nc2cc(-c3ccccn3)c(Br)cn2)cc(C2CC2)n1C | > 99.5 µM |
| Cn1nccc1C1CCN(Cc2c[nH]c3ccccc23)CC1 | > 99.5 µM |
| CCC1CCN(Cc2c[nH]c3ccccc23)CC1 | > 99.5 µM |
| Clc1cc(/C=C/c2cccc(-c3nn[nH]n3)c2)c2cn[nH]c2c1 | > 99.5 µM |
| NS(=O)(=O)c1nc(C(=O)N2CCc3c(CO)cccc32)n2ccccc12 | > 99.5 µM |
| O=c1ccccn1-c1ncc(Br)cn1 | > 99.5 µM |
| Cc1[nH]c2ccc(Cl)cc2c1Cc1ccc(-c2nnn[nH]2)cc1 | > 99.5 µM |
| Cc1nnc(CSc2ncnc3sccc23)o1 | > 99.5 µM |
| COC(=O)c1csc2cc(C(=O)N3CCCc4cc(CCN)ccc43)[nH]c12 | > 99.5 µM |
| NS(=O)(=O)c1ccc(N2CCC=C(c3cccc(O)c3)C2)c2ncccc12 | > 99.5 µM |
| Cn1ncc2c(C(=O)Nc3ccc4c(c3)CNC4)cc(Cl)cc21 | 0.047 µM and 0.027 µM |
| O=C(O)c1cc(Cl)ccc1S(=O)(=O)NC1CCN(c2ncnc3c2CCC3)CC1 | > 99.5 µM |
| NCc1ccc(-c2ncc(OCC3CCNCC3)nc2-c2ccc(-c3ccoc3)cc2)cc1 | > 99.5 µM |
| c1ccc([C@H](NCc2c[nH]c3ccccc23)c2cccnc2)cc1 | > 99.5 µM |
| Cc1cc([C@H](Nc2ccc3c(c2)CNC3)C(=O)NCC(F)F)cc(C(F)(F)F)c1 | 0.019 µM and < 0.012 µM |

| SMILES | IC50 |
| --- | --- |
| CCn1c(=O)c(N2CC[C@H](N3CCN(C)CC3)C2)nc2ccccc21 | > 99.5 µM |
| O=C(O)c1cc(Cl)ccc1NS(=O)(=O)c1ccc(OCc2ncccn2)cc1 | > 99.5 µM |
| CC[C@H](Cc1nnn[nH]1)c1ccc(NC(=O)c2cc(Cl)cc(C3CC3)c2)cc1 | > 99.5 µM |
| Cc1cc(C=O)c(C)n1-c1cccc(C(=O)N2CCN(C)CC2)c1 | > 99.5 µM |
| O=C(O)c1cc2cc(-c3cc(Cl)cc4c3CCNC4=O)ccc2[nH]1 | > 99.5 µM |
| CC(C)CNC(=O)c1cc(Cl)ccc1C=Cc1ccc(Oc2ccccc2Cl)cc1 | > 99.5 µM |
| NC(=O)c1cccc(NC(=O)[C@@H](NC(=O)c2ccc(Oc3ccc(C(F)(F)F)cc3)cc2)c2ccc(OCc3ccccc3)cc2)c1 | > 99.5 µM |
| CN1C(=O)C[C@H](C(=O)Nc2cccc(CN)c2)[C@H]1c1ccc(Cl)c(Cl)c1 | > 99.5 µM |
| COCc1nn(CC#Cc2ccc(Cl)cc2)c(=O)o1 | > 99.5 µM |
| C[C@H](C(=O)O)c1cccc(NC(=O)c2cc(Cl)cc(NC(=O)OCc3ccccc3)c2)c1 | > 99.5 µM |
| CNC(=O)CN1CCC([C@@H](NC(=O)OCc2ccccc2)C(=O)Nc2cccc(CN)c2)CC1 | > 99.5 µM |
| NCc1cccc(NC(=O)[C@H](NC(=O)OCc2ccccc2)c2cccc(OCCn3cccn3)c2)c1 | > 99.5 µM |
| Cc1cccc(CNc2ccc(Cl)cc2C(=O)Nc2cccc(CN)c2)n1 | > 99.5 µM |
| CCn1cc(-c2ccc(S(C)(=O)=O)cc2)nc(N2CC[C@@H](CO)C2)c1=O | > 99.5 µM |
| CC[C@H](Cc1nnn[nH]1)c1ccc(NC(=O)c2cc(Cl)cc(SC)c2)cc1 | > 99.5 µM |
| NCc1cccc(NC(=O)[C@H](NC(=O)OCc2ccccc2)C2CCN(C(=O)Cn3ccnc3)CC2)c1 | > 99.5 µM |
| O=C(O)c1cc(NS(=O)(=O)c2ccc(Oc3ccccc3Cl)cc2)ccc1Cl | > 99.5 µM |
| Cc1oc(C2CC2)nc1C(=O)Nc1cc(CCCN)ccn1 | > 99.5 µM |
| CNc1c(-c2cc(Cl)cc(C3CC3)c2)nc2cccc(C(=O)O)n12 | > 99.5 µM |
| Cc1cc(C(=O)Nc2cccc(CN)c2)cc(NCc2cnn(C)c2)n1 | > 99.5 µM |
| Cc1cccc([C@@H](NC(=O)OCc2ccccc2)C(=O)Nc2cccc(CN)c2)n1 | > 99.5 µM |

| SMILES | IC50 |
| --- | --- |
| NCc1ccc(C(=O)O)c(NC(=O)c2cc(Cl)cc(NC(=O)OCc3ccccc3)c2)c1 | > 99.5 µM |
| O=C(Nc1cc(Cl)cc(C(=O)N2CC[C@H](C(=O)O)C2)c1)OCc1ccccc1 | > 99.5 µM |
| CN(C)Cc1cc(CNC(=O)[C@@H](NC(=O)OCc2ccccc2)c2ccc(OCc3ccccc3)cc2)ccc1F | > 99.5 µM |
| Cn1ccnc1C(=O)N1CCC([C@H](NC(=O)OCc2ccccc2)C(=O)Nc2cccc(CN)c2)CC1 | > 99.5 µM |
| O=C1Nc2ncccc2C[C@H]1NCc1n[nH]c2ccccc12 | > 99.5 µM |
| Cn1nc2c(c1NC(=O)c1cc(Cl)cc(NC(=O)OCc3ccccc3)c1)CNC2 | > 99.5 µM |
| Cc1ncsc1C(=O)N[C@H](C(=O)Nc1cccc(CN)c1)c1ccc(OCc2ccccc2)cc1 | > 99.5 µM |
| C[C@H]1NCCc2c(-c3ccc4[nH]c(C(=O)O)cc4c3)cc(F)cc21 | > 99.5 µM |
| CS(=O)(=O)NC(=O)c1cc(CN)cc([C@@H]2C[C@H]2c2cc(Cl)cc(NC(=O)OCc3ccccc3)c2)c1 | > 99.5 µM |
| CC(C)c1cnc(COc2ccc(S(=O)(=O)Nc3ccc(Cl)cc3C(=O)O)cc2)o1 | > 99.5 µM |
| CCn1cc(-c2ccccc2C(C)C)nc(N2CC[C@@H](CO)C2)c1=O | > 99.5 µM |
| CC(C)CNC(=O)[C@H](Nc1ccc2c(c1)CNC2)c1cc(Cl)cc2[nH]ncc12 | 0.075 µM and 0.054 µM |
| CNc1ncc(C(F)(F)F)cc1-c1ccc2[nH]c(C(=O)O)cc2c1 | > 99.5 µM |
| N#C[C@H](Nc1cccn(CC(=O)O)c1=O)c1cc(Cl)cc(C2CC2)c1 | > 99.5 µM |
| N[C@@H](Cc1c[nH]cn1)C(=O)N1CCC2(CC1)OCCc1cc(O)ccc12 | > 99.5 µM |
| O=C(Nc1cc2c(cc1Br)CNC2)c1cc(F)cc2[nH]ncc12 | 0.048 µM and 0.028 µM |
| FC(F)(F)c1nc(CNCc2cocn2)cs1 | > 99.5 µM |
| c1ccc(N2CCN(Cc3c[nH]c4ccccc34)CC2)nc1 | > 99.5 µM |
| Cc1cc(C(=O)Nc2cccc(CN)c2)c2nc(C)n(C)c2n1 | > 99.5 µM |
| NCc1ccccc1Oc1ccc(S(=O)(=O)Nc2ccc(Cl)cc2C(=O)NCC(F)(F)F)cc1 | > 99.5 µM |

Now from value to compound:

| IC50 | SMILES |
| --- | --- |
| 12.3 µM | NCc1cccc(NC(=O)[C@@H](NC(=O)OCc2ccccc2)c2ccc(-c3ccc4scnc4c3)cc2)c1 |
| 18.7 µM | N#Cc1ccc(CN)cc1NC(=O)c1cc(Cl)cc(NC(=O)OCc2ccccc2)c1 |
| > 25 µM | Cn1nc(C2CC2)cc1C(=O)Nc1cc(CCCN)ccn1 |
| 1.49 µM | NS(=O)(=O)c1cc(F)cc(C(=O)Nc2ccc3c(c2)CNC3)c1 |
| 1.77 µM | O=C(Nc1ccc2c(c1)CNC2)c1ccc2c(c1)C1(CC1)C(=O)N2 |
| 0.171 µM | C[C@]1(O)C(=O)Nc2cc(F)cc(C(=O)Nc3ccc4c(c3)CNC4)c21 |
| 5.77 µM | Cc1nnc(SC[C@H]2CCCN2C(=O)Nc2ccc3c(c2)CNC3)s1 |
| > 0.782 µM | O=Cc1ccc(N2CCC(C(=O)N3CCN(c4ccc([N+](=O)[O-])cc4C(F)(F)F)CC3)CC2)cc1 |
| 7.49 µM | CC1(C)C(=O)Nc2ccc(C(=O)Nc3ccc4c(c3)CNC4)cc21 |
| 23.9 µM | O=C(Nc1cc(Cl)cc(C(=O)Nc2ccc3c(c2)[C@H]2CC[C@H]3N2)c1)OCc1ccccc1 |
| > 25 µM | Cn1cc2cc(C#N)cc(-c3ccc4[nH]c(C(=O)O)cc4c3)c2n1 |
| 53.8 µM | CNC(=O)[C@]1(Nc2ccc3c(c2)CNC3)C(=O)Nc2c(OC)cc(Br)cc21 |
| 0.466 µM | N#Cc1csc2cc(C(=O)Nc3ccc4c(c3)CNC4)ccc12 |
| 30.3 µM | Cc1ccc2cccc(NC(=O)C3CCN(c4ccc(C=O)cc4)CC3)c2n1 |
| 39.6 µM | NCc1cc(NC(=O)c2cc(Cl)cc(NC(=O)OCc3ccccc3)c2)cc(-c2cccc(CC(=O)O)c2)c1 |
| 0.159 µM | O=C(Nc1ccc2c(c1)CNC2)c1cc(Cl)cc2c1CCC2 |
| 34.7 µM | c1ccc(C2CCN(Cc3c[nH]c4ccccc34)CC2)nc1 |
| 0.494 µM | O=C(NCC(F)F)[C@H](Nc1ccc2c(c1)CNC2)c1cc(Cl)ccc1Sc1ccccc1 |
| 10.6 µM | Cc1cnn(-c2cc(C(=O)O)c(NS(=O)(=O)c3ccc(Oc4ccccc4Cl)cc3)cc2F)c1 |
| 0.124 µM | O=C(NCCCn1ccnc1)[C@H](Nc1ccc2c(c1)CNC2)c1cc(Cl)cc(C2CC2)c1 |

| IC50 | SMILES |
| --- | --- |
| > 25 µM | O=C(Nc1cc([C@H]2CCOC2)ccn1)c1cc(F)cc2[nH]ccc12 |
| 85.6 µM | N#Cc1cccc(N2CCN(Cc3c[nH]c4ccccc34)CC2)c1 |
| 19.3 µM | N#C[C@H](Nc1ccc(-c2nn[nH]n2)cc1)c1cc(Cl)cc(NC(=O)OCc2ccccc2)c1 |
| 19.6 µM | CNCc1cccc(NC(=O)c2cc(Cl)cc(NC(=O)OCc3ccccc3)c2)c1 |
| 0.187 µM | CCc1nc2c(C(=O)Nc3ccc4c(c3)CNC4)cc(Br)cc2[nH]1 |
| > 25 µM | CC(C)n1cc(C(=O)Nc2cc(-c3cccnc3)ccn2)c2ccccc21 |
| 7.99 µM | CN(C)Cc1cc(Cl)cc(C(=O)Nc2cccc(CN)c2)c1 |
| 23.1 µM | O=C(Nc1cc(Cl)cc(-c2cccc3c(C(=O)O)cccc23)c1)OCc1ccccc1 |
| > 25 µM | O=C1Cc2c(cccc2C(=O)N[C@H]2C[C@H](OC(F)F)C2)N1 |
| 0.997 µM | O=C(Nc1ccc2c(c1)CNC2)c1ccc2ncsc2c1 |
| 6.02 µM | O=C(Nc1cc(Cl)cc(C(=O)Nc2ccc(C3CCNCC3)cc2)c1)OCc1ccccc1 |
| 87.6 µM | CN1CCC(COc2cccc([C@H](NC(=O)OCc3ccccc3)C(=O)Nc3cccc(CN)c3)c2)CC1 |
| 99 µM | NCc1cccc(NC(=O)[C@@H](NS(=O)(=O)c2ccccc2F)c2ccc(OCc3ccccc3)cc2)c1 |
| 0.113 µM | O=C(Nc1ccc2c(c1)CNC2)c1cccc2c1[C@]1(CCNC1)C(=O)N2 |
| 22.7 µM | C[C@@H](N)c1cccc(NC(=O)c2cc(Cl)cc(NC(=O)OCc3ccccc3)c2)c1 |
| 65.6 µM | NC(=O)c1cc(Cl)ccc1NS(=O)(=O)c1ccc(-c2ccc(F)cc2)cc1 |
| 24.6 µM | O=C(Nc1ccc2c(c1)CNC2)N1C[C@H](C(F)F)C2(CC2)C1 |
| > 25 µM | O=C1Cc2c(cccc2C(=O)Nc2ccc(-c3cccnc3)cn2)N1 |
| 35.3 µM | CN1C(=O)[C@H](c2cc(Cl)cc(NC(=O)OCc3ccccc3)c2)N(c2cccc(-c3nn[nH]n3)c2)C1=O |
| 58.3 µM | NCc1cccc(NC(=O)C[C@H](NC(=O)OCc2ccccc2)c2ccc(C(F)(F)F)cc2)c1 |
